The text below walks through data of patent publication US6949542B2, “Dihydro-benzo[b][1,4]diazepin-2-one derivatives” (Hoffman-La Roche Inc., priority 2002, dated 2005).

A word on the melting point: it is the temperature of the solid-liquid transition.

The molecule `Cc1cncc(-c2cccc(C3=Nc4cc(Cl)c(C)cc4NC(=O)C3)c2)n1` [Example 132, 7-Chloro-8-methyl-4-[3-(6-methyl-pyrazin-2-yl)-phenyl]-1,3-dihydro-benzo[b][1,4]diazepin-2-one] registered a melting point of 254 °C.
The molecule `Cc1cc(-c2cccc(C3=Nc4cc(C)c(Cl)cc4NC(=O)C3)c2)c(C)cn1` [Example 134, 8-Chloro-4-[3-(2,5-dimethyl-pyridin-4-yl)-phenyl]-7-methyl-1,3-dihydro-benzo[b][1,4]diazepin-2-one] registered a melting point of 208 °C.
Take `Cc1cc(-c2cccc(C3=Nc4cc(C)c(C(F)(F)F)cc4NC(=O)C3)c2)c(C)cn1` [Example 135, 4-[3-(2,5-Dimethyl-pyridin-4-yl)-phenyl]-7-methyl-8-trifluoromethyl-1,3-dihydro benzo[b][1,4]diazepin-2-one]: the melting point amounted to 211 °C.
The molecule `Cc1cc(-c2cccc(C3=Nc4cc(Cl)c(C(F)(F)F)cc4NC(=O)C3)c2)c(C)cn1` [Example 136, 7-Chloro-4-[3-(2,5-dimethyl-pyridin-4-yl)-phenyl]-8-trifluoromethyl-1,3-dihydro benzo[b][1,4]diazepin-2-one] had a melting point of 214 °C.
As for `Cc1cc(-c2cccc(C3=Nc4cc(Cl)c(Cl)cc4NC(=O)C3)c2)c(C)cn1` [Example 137, 7,8-Dichloro-4-[3-(2,5-dimethyl-pyridin-4-yl)-phenyl]-1,3-dihydro-benzo[b][1,4]diazepin-2-one], the figure is 208 °C; as for `CCOc1cc2c(cc1C(F)(F)F)NC(=O)CC(c1cccc(-c3cc(C)ncc3C)c1)=N2` [Example 139, 4-[3-(2,5-Dimethyl-pyridin-4-yl)-phenyl]-7-ethoxy-8-trifluoromethyl-1,3-dihydro-benzo[b][1,4]diazepin-2-one], 189 °C; as for `Cc1cc2c(cc1Cl)NC(=O)CC(c1cccc(-c3ccnc(C)c3C)c1)=N2` [Example 140, 8-Chloro-4-[3-(2,3-dimethyl-pyridin-4-yl)-phenyl]-7-methyl-1,3-dihydro-benzo[b][1,4]diazepin-2-one], 224 °C.
For `Cc1cc2c(cc1C(F)(F)F)NC(=O)CC(c1cccc(-c3ccnc(C)c3C)c1)=N2` [Example 141, 4-[3-(2,3-Dimethyl-pyridin-4-yl)-phenyl]-7-methyl-8-trifluoromethyl-1,3-dihydro benzo[b][1,4]diazepin-2-one] the value was 222 °C.
In turn, `Cc1nccc(-c2cccc(C3=Nc4ccc(C(F)(F)F)cc4NC(=O)C3)c2)c1C` [Example 142, 4-[3-(2,3-Dimethyl-pyridin-4-yl)-phenyl]-8-trifluoromethyl-1,3-dihydro benzo[b][1,4]diazepin-2-one] had a melting point of 200 °C.
As for `Cc1nccc(-c2cccc(C3=Nc4cc(Cl)c(C(F)(F)F)cc4NC(=O)C3)c2)c1C` [Example 143, 7-Chloro-4-[3-(2,3-dimethyl-pyridin-4-yl)-phenyl]-8-trifluoromethyl-1,3-dihydro benzo[b][1,4]diazepin-2-one], the figure is 212 °C.
Take `Cc1nccc(-c2cccc(C3=Nc4cc(Cl)c(Cl)cc4NC(=O)C3)c2)c1C` [Example 144, 7,8-Dichloro-4-[3-(2,3-dimethyl-pyridin-4-yl)-phenyl]-1,3-dihydro-benzo[b][1,4]diazepin-2-one]: the melting point was found to be 219 °C.
For `Cc1nccc(-c2cccc(C3=Nc4cc(OCC(F)(F)F)c(C(F)(F)F)cc4NC(=O)C3)c2)c1C` [Example 145, 4-[3-(2,3-Dimethyl-pyridin-4-yl)-phenyl]-7-(2,2,2-trifluoro-ethoxy)-8-trifluoromethyl-1,3-dihydro-benzo[b][1,4]diazepin-2-one] the value was 222 °C; for `CCOc1cc2c(cc1C(F)(F)F)NC(=O)CC(c1cccc(-c3ccnc(C)c3C)c1)=N2` [Example 146, 4-[3-(2,3-Dimethyl-pyridin-4-yl)-phenyl]-7-ethoxy-8-trifluoromethyl-1,3-dihydro-benzo[b][1,4]diazepin-2-one], 217 °C.
For `CCc1cnc(C)cc1-c1cccc(C2=Nc3cc(C)c(C(F)(F)F)cc3NC(=O)C2)c1` [Example 148, 4-[3-(5-Ethyl-2-methyl-pyridin-4-yl)-phenyl]-7-methyl-8-trifluoromethyl-1,3-dihydro benzo[b][1,4]diazepin-2-one], the melting point is 182 °C.
`CCc1cnc(C)cc1-c1cccc(C2=Nc3ccc(C(F)(F)F)cc3NC(=O)C2)c1` [Example 149, 4-[3-(5-Ethyl-2-methyl-pyridin-4-yl)-phenyl]-8-trifluoromethyl-1,3-dihydro benzo[b][1,4]diazepin-2-one] returned a melting point of 183 °C.
As for `CCc1cnc(C)cc1-c1cccc(C2=Nc3cc(Cl)c(Cl)cc3NC(=O)C2)c1` [Example 150, 7,8-Dichloro-4-[3-(5-ethyl-2-methyl-pyridin-4-yl)-phenyl]-1,3-dihydro-benzo[b][1,4]diazepin-2-one], the figure is 191 °C; as for `CCc1cnc(C)cc1-c1cccc(C2=Nc3cc(OCC(F)(F)F)c(C(F)(F)F)cc3NC(=O)C2)c1` [Example 151, 4-[3-(5-ethyl-2-methyl-pyridin-4-yl)-phenyl]-7-(2,2,2-trifluoro-ethoxy)-8-trifluoromethyl-1,3-dihydro-benzo[b][1,4]diazepin-2-one], 169 °C.
In turn, `CCOc1cc2c(cc1C(F)(F)F)NC(=O)CC(c1cccc(-c3cc(C)ncc3CC)c1)=N2` [Example 152, 4-[3-(5-Ethyl-2-methyl-pyridin-4-yl)-phenyl]-7-ethoxy-8-trifluoromethyl-1,3-dihydro-benzo[b][1,4]diazepin-2-one] gave a melting point of 191 °C.
`CCc1cc(-c2cccc(C3=Nc4cc(C)c(Cl)cc4NC(=O)C3)c2)ccn1` [Example 153, 8-Chloro-4-[3-(2-ethyl-pyridin-4-yl)-phenyl]-7-methyl-1,3-dihydro-benzo[b][1,4]diazepin-2-one] registered a melting point of 195 °C.
Consider `CCc1cc(-c2cccc(C3=Nc4ccc(C(F)(F)F)cc4NC(=O)C3)c2)ccn1` [Example 155, 4-[3-(2-Ethyl-pyridin-4-yl)-phenyl]-8-trifluoromethyl-1,3-dihydro benzo[b][1,4]diazepin-2-one], for which the melting point was found to be 208 °C.
For `CCc1cc(-c2cccc(C3=Nc4cc(Cl)c(C(F)(F)F)cc4NC(=O)C3)c2)ccn1` [Example 156, 7-Chloro-4-[3-(2-ethyl-pyridin-4-yl)-phenyl]-8-trifluoromethyl-1,3-dihydro benzo[b][1,4]diazepin-2-one] the value was 217 °C; for `CCc1cc(-c2cccc(C3=Nc4cc(Cl)c(Cl)cc4NC(=O)C3)c2)ccn1` [Example 157, 7,8-Dichloro-4-[3-(2-ethyl-pyridin-4-yl)-phenyl]-1,3-dihydro-benzo[b][1,4]diazepin-2-one], 216 °C; for `CCc1cc(-c2cccc(C3=Nc4cc(OCC(F)(F)F)c(C(F)(F)F)cc4NC(=O)C3)c2)ccn1` [Example 158, 4-[3-(2-Ethyl-pyridin-4-yl)-phenyl]-7-(2,2,2-trifluoro-ethoxy)-8-trifluoromethyl-1,3-dihydro-benzo[b][1,4]diazepin-2-one], 232 °C.
